Legend:
[1] = Dissolving clathrate in deionized water (appearance of mixture); assay type: physicochemical; details: 6.4 gms clathrate in 800 ml deionized water (pH=3), shaken; 0.2% quat, 0.6% urea
[2] = Solubility / stability against decomposition in chloroform; assay type: physicochemical
Procedure: The following experiments were conducted to determine if the clathrate compositions of this invention would be decomposed by chloroform (a strong solvent).
7.51 grams of urea were slurried in a beaker with 75.4 grams of chloroform by magnetic stirring for 10 minutes. The slurry was then filtered by gravity through filter paper. The filtrate was employed to rinse the beaker to remove all solids and the rinse added to the filter cake. The filtrate was then evaporated in a tared beaker and a residue of 0.01 grams obtained (which was within experimental error). From this experiment, it can be concluded that urea was insoluble in chloroform.
10.21 grams of Example 7, Table 1 organosilane quaternary clathrate was slurried as above in 75 grams of chloroform for 10 minutes and the slurry filtered as above and the filtrate evaporated to dryness. A waxy residue of 0.07 grams remained in the beaker.
It can be concluded that this residue was not the organosilane quaternary. The solids that were filtered were dried to constant weight. 10.24 grams were recovered. 10.21 grams of the clathrate had been added. The difference of +0.03 grams was within experimental error. It can be concluded that the clathrate was not soluble in chloroform and that the organosilane quaternary was not extracted from the clathrate by the chloroform.

residue of evaporated chloroform filtrate [2] | solubility in chloroform [2] | SMILES | appearance of solution [1]
 |  | CCCCCCCCCCCCCCCCCC[N+](C)(C)CCC[Si](OC)(OC)OC.[Cl-] [Example 7, 3-(trimethoxysilyl)propyldimethyloctadecyl ammonium chloride] | clear
0.01 grams | insoluble | NC(N)=O [urea] | 
